Biological target: Alpha-glucosidase (Saccharomyces cerevisiae S288c, UniProt P53341+P38158+P07265)
Test: Inhibition of Saccharomyces cerevisiae alpha-glucosidase using nitrophenol-alpha-D-glucopyranoside (pNPG) as substrate incubated for 15 mins
Format: protein assay

SMILES | IC50 [µM]
Clc1ccccc1/C=N/Nc1nnc2n1N=C(c1ccccc1)CS2 | 41.83
COc1cc(/C=N/Nc2nnc3n2N=C(c2ccccc2)CS3)cc(OC)c1OC | 91.47
Oc1cccc(/C=N/Nc2nnc3n2N=C(c2ccccc2)CS3)c1 | 135.7
Oc1ccccc1/C=N/Nc1nnc2n1N=C(c1ccccc1)CS2 | 55.42

From ChEMBL document CHEMBL5634160, “Synthesis, biological evaluation and action mechanism of 7H-[1,2,4] triazolo [3,4-b] [1,3,4] thiadiazine-phenylhydrazone derivatives as α-glucosidase inhibitors” (Eur J Med Chem, 2023)
